Patent publication US11390631B1, “Benzodiazepine derivatives as RSV inhibitors” (priority 2015, dated 2022)
pEC50: −log10 of the molar value. Read-outs that look alike come from different tables or passages of the source.

Legend:
[1] = system: RSV-B, genotype B, strain 9320; assay: RSV-B assay: A549 cells infected with RSV-B, qPCR or ATPlite readout; assay type: cell-based, Human respiratory syncytial virus (HRSV); settings: human respiratory syncytial virus
Description: Hep-2 cells, (originally derived from tumors grown in irradiated-cortisonised weanling rats that had been injected with epidermoid carcinoma tissue from a person's larynx, but later found to be indistinguishable from HeLa cells by PCR DNA analysis), were used for the culturing of genotype B, strain 9320. Flasks were inoculated with RSV-B and viral stocks were collected once cytopathic effect (CPE) was greater than […]. Viral stocks in 25% o sucrose media were snap frozen using liquid nitrogen to increase viral stability. Viral stock titers were quantified by tissue culture infectious dose 50% o (TCID50) using 8,000 cells per well and 5-fold viral dilutions across a 96-well plate, cultured for 4 days. Viral stock titers were also quantified by a plaque forming unit assay, as described elsewhere.
The assay is run as follows: A549 cells (originally derived through explant culture from a person's carcinomatous lung tissue) are seeded into the inner 60 wells of a 96-well plate at 3,000 cells per well in a volume of 50 μL using A549 growth media (F-12K Media, 1% Penn/Strep, 1% nonessential amino acids, 10% heat-inactivated FBS). 2-fold serial dilutions of control and test compounds are added to the wells in duplicate in a total volume of 25 μL. Viral stock is then added to the wells at a multiplicity of infection (MOI) of 0.5 in a volume of 25 μL, bringing the total volume of each well to 100 μL. The MOI is calculated using the PFU/mL, or TCID50 if unavailable. Each 96-well plate has a control column of 6 wells with cells and virus but no compound (negative control, max CPE), a column with cells but no compound or virus (positive control, minimum CPE), and a column with no cells or virus or compound (background plate/reagent control). The control wells with cells but no virus are given an additional 25 uL of growth media containing an equal quantity of sucrose as those wells receiving the viral stock in order to keep consistent in media and volume conditions. The outer wells of the plate are filled with 125 μL of moat media (DMEM, 1% Penn/Strep) to act as a thermal and evaporative moat around the test wells. 6 days post infection, the plates are read using qPCR or ATP lite (50 uL added per well), which quantifies the amount of ATP (a measure of cell health) present in each well. Assay plates treated with APTlite are read using the Envision luminometer. […] EC50 ranges are as follows: A<0.4 μM; B 0.4-0.8 μM; C>0.8 μM.

[2] = system: Human RSV-A (“Long” strain); assay: RSV-A assay: inhibition of cytopathic effect in Hep-2 cells, ATPlite readout; assay type: cell-based, Human respiratory syncytial virus (HRSV); settings: human respiratory syncytial virus, read-out: Human RSV-A (“Long” strain) EC50
How it was run: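 Cytopathic-effect protection was read as ATP content (ATPlite luminescence) after a 5-day incubation. Setup: Hep-2 cells at 8,000 per well, RSV-A Long at MOI 0.1, 2-fold serial compound dilutions in duplicate. Cytotoxicity (CC50) was measured on an identical uninfected plate run in parallel.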

[3] = A549, read-out: Human RSV-B EC50
[4] = A549 cells infected with RSV-B strain 9320, MOI 0.5, read-out: Human RSV-B EC50
[5] = 120 h, Hep-2 cells, MOI 0.1, 5-day incubation, ATPlite

| pEC50 [1, 4] | pEC50 [2, 5] | SMILES | pEC50 [1, 3] | pEC50 ([2]; HEp-2, 120 h) |
| --- | --- | --- | --- | --- |
|  |  | O=C1Nc2ccccc2C(c2ccccc2)=NC1Nc1ccc(-c2ccccc2)nn1 (stereo not shown) [Example 95] | < 6.10 | 6.10 to 6.40 |
|  |  | CN(C)c1ccc(-c2nnc(NC3N=C(c4ccccc4)c4ccccc4NC3=O)o2)nc1 (stereo not shown) [Example 108] | < 6.10 | < 6.10 |
|  |  | O=C1Nc2ccccc2C(c2ccccc2)=NC1Nc1nnc(-c2cccnc2N2CCOCC2)o1 (stereo not shown) [Example 120] | 6.10 to 6.40 | > 6.40 |
|  |  | O=C1Nc2ccccc2C(c2ccccc2)=NC1Nc1nnc(-c2ccc(C(F)(F)F)cc2N2CCOCC2)o1 (stereo not shown) [Example 123] | 6.10 to 6.40 | > 6.40 |
|  |  | O=C1Nc2ccccc2C(c2ccccc2)=NC1Nc1nnc(-c2ccc(N3CCOCC3)cc2)o1 (stereo not shown) [Example 124] | > 6.40 |  |
|  |  | O=C1Nc2ccccc2C(c2ccccc2)=NC1Nc1nnc(-c2ccccc2N2CCOCC2)o1 (stereo not shown) [Example 125] | 6.10 to 6.40 |  |
|  |  | O=C1Nc2ccccc2C(c2ccccc2)=NC1Nc1nnc(-c2ccc(F)cc2N2CCOCC2)o1 (stereo not shown) [Example 127] | > 6.40 | > 6.40 |
|  |  | O=C1Nc2ccccc2C(c2ccccc2)=NC1Nc1nnc(-c2ccc(-n3cccn3)cc2N2CCOCC2)o1 (stereo not shown) [Example 129] | > 6.40 | > 6.40 |
|  |  | N#Cc1ccc(-c2nnc(NC3N=C(c4ccccc4)c4ccccc4NC3=O)o2)c(N2CCOCC2)c1 (stereo not shown) [Example 131] | > 6.40 | > 6.40 |
|  |  | O=C1Nc2ccccc2C(c2ccccc2)=N[C@@H]1Nc1nnc(-c2ncc(F)cc2N2CCOCC2)o1 [Example 136, (S)-3-((5-(5-fluoro-3-morpholinopyridin-2-yl)-1,3,4-oxadiazol-2-yl)amino)-5-phenyl-1,3-dihydro-2H-benzo[e][1,4]diazepin-2-one] | > 6.40 | > 6.40 |
| > 6.40 | > 6.40 | O=C1Nc2ccccc2C(c2ccccc2)=NC1Nc1nnc(-c2ncc(C(F)(F)F)cc2N2CCOCC2)o1 (stereo not shown) [Example 139] |  |  |
|  |  | Cc1ccc(-c2nnc(NC3N=C(c4ccccc4)c4ccccc4NC3=O)o2)c(N2CCOCC2)n1 (stereo not shown) [Example 144] | > 6.40 | > 6.40 |
|  |  | N#Cc1ccc(-c2nnc(N[C@H]3N=C(c4ccccc4)c4ccccc4NC3=O)o2)c(N2CCOCC2)n1 [Example 153] | > 6.40 | > 6.40 |
|  |  | Cn1c(N2CCOCC2)c(-c2nnc(N[C@H]3N=C(c4ccccc4)c4ccccc4NC3=O)o2)ccc1=O [Example 155] | > 6.40 | > 6.40 |
|  |  | Cc1nc(N2CCOCC2)c(-c2nnc(N[C@H]3N=C(c4ccccc4)c4ccccc4NC3=O)o2)cc1C#N [Example 158] | > 6.40 | > 6.40 |
|  |  | N#Cc1cnc(-c2nnc(N[C@H]3N=C(c4ccccc4)c4ccccc4NC3=O)o2)c(N2CCOCC2)c1 [Example 160] | > 6.40 |  |
|  |  | O=C1Nc2ccccc2C(c2ccccc2)=N[C@@H]1Nc1nnc(-c2ncc(Br)cc2N2CCOCC2)o1 [Example 168] | > 6.40 | > 6.40 |
|  |  | O=C1Nc2ccccc2C(c2ccccc2)=N[C@@H]1Nc1nnc(-c2ncc(C3CC3)cc2N2CCOCC2)o1 [Example 169] | > 6.40 | > 6.40 |
|  |  | N#Cc1cc(-c2nnc(N[C@H]3N=C(c4ccccc4)c4ccccc4NC3=O)o2)c(N2CCOCC2)nc1C1CC1 [Example 175] | 6.10 to 6.40 | > 6.40 |
|  |  | O=C1Nc2ccccc2C(c2ccccc2)=N[C@@H]1Nc1nnc(-c2oc3ccccc3c2N2CCOCC2)o1 [Example 179] | > 6.40 | > 6.40 |
|  |  | CN1CCN(c2ccccc2-c2nnc(NC3N=C(c4ccccc4)c4ccccc4NC3=O)o2)CC1 (stereo not shown) [Example 224] | > 6.40 | < 6.10 |
|  |  | O=C1Nc2ccccc2C(c2ccccc2)=N[C@@H]1Nc1nnc(-c2cccnc2N2CCOCC2)o1 [Example 242] | > 6.40 | > 6.40 |
|  |  | C[C@@H]1COCCN1c1ncccc1-c1nnc(NC2N=C(c3ccccc3)c3ccccc3NC2=O)o1 (stereo partly shown) [Example 245] | 6.10 to 6.40 | > 6.40 |
|  |  | O=C1Nc2ccccc2C(c2ccccc2)=N[C@@H]1Nc1nnc(-c2ncc(C(F)(F)F)cc2N2C3CCC2COC3)o1 [Example 250] | > 6.40 | > 6.40 |

| pEC50 [1, 4] | pEC50 [2, 5] | SMILES | pEC50 [1, 3] | pEC50 ([2]; HEp-2, 120 h) |
| --- | --- | --- | --- | --- |
|  |  | O=C1Nc2ccccc2C(c2ccccc2)=N[C@@H]1Nc1nnc(-c2ncc(C(F)(F)F)cc2N2CC3CCC(C2)O3)o1 [Example 251] | > 6.40 | > 6.40 |
|  |  | Cc1ccc(-c2nnc(N[C@H]3N=C(c4ccccc4)c4ccccc4NC3=O)o2)c(N2CCOCC2)n1 [Example 252] | > 6.40 | > 6.40 |
| > 6.40 | > 6.40 | O=C1Nc2ccccc2C(c2ccccc2)=N[C@@H]1Nc1nnc(-c2ncc(C(F)(F)F)cc2N2CCOCC2)o1 [Example 253] |  |  |
|  |  | C[C@H]1CN(c2ncccc2-c2nnc(NC3N=C(c4ccccc4)c4ccccc4NC3=O)o2)CCO1 (stereo partly shown) [Example 263] | 6.10 to 6.40 | 6.10 to 6.40 |
|  |  | COC1CCN(c2cc(C(F)(F)F)cnc2-c2nnc(N[C@H]3N=C(c4ccccc4)c4ccccc4NC3=O)o2)CC1 [Example 268] | 6.10 to 6.40 | < 6.10 |
|  |  | O=C1Nc2ccccc2C(c2ccccc2)=N[C@@H]1Nc1nnc(-c2ncc(C(F)(F)F)cc2N2CCC(F)CC2)o1 [Example 269] | 6.10 to 6.40 | < 6.10 |
|  |  | Cc1nc(-c2nnc(N[C@H]3N=C(c4ccccc4)c4ccccc4NC3=O)o2)c(N2CCOCC2)s1 [Example 272] | > 6.40 | > 6.40 |
|  |  | O=C1Nc2ccccc2C(c2ccccc2)=N[C@@H]1Nc1nnc(-c2ccc(C(F)(F)F)nc2N2CC3CCC(C2)O3)o1 [Example 276] | < 6.10 | 6.10 to 6.40 |
|  |  | C[C@@H]1CN(c2cc(C(F)(F)F)cnc2-c2nnc(N[C@H]3N=C(c4ccccc4)c4ccccc4NC3=O)o2)CCO1 [Example 277] | > 6.40 | > 6.40 |
|  |  | C[C@H]1CN(c2cc(C(F)(F)F)cnc2-c2nnc(N[C@H]3N=C(c4ccccc4)c4ccccc4NC3=O)o2)CCO1 [Example 278] | > 6.40 | > 6.40 |
|  |  | COCCOc1cc(C#N)ccc1-c1nnc(N[C@H]2N=C(c3ccccc3)c3ccccc3NC2=O)o1 [Example 300] | > 6.40 | > 6.40 |
|  |  | N#CCCNc1cc(C(F)(F)F)cnc1-c1nnc(N[C@H]2N=C(c3ccccc3)c3ccccc3NC2=O)o1 [Example 303] | > 6.40 | > 6.40 |
|  |  | N#Cc1cnc(-c2nnc(N[C@H]3N=C(c4ccccc4)c4ccccc4NC3=O)o2)c(N2CC3CCC(C2)O3)c1 [Example 304] | > 6.40 | > 6.40 |
|  |  | O=C1Nc2ccccc2C(c2ccccc2)=N[C@@H]1Nc1nnc(-c2nc3ccccc3cc2N2CCOCC2)o1 [Example 322] | > 6.40 | > 6.40 |
|  |  | O=C1Nc2ccccc2C(c2ccccc2)=N[C@@H]1Nc1nnc(-c2ncsc2N2CCOCC2)o1 [Example 336] | > 6.40 | > 6.40 |
|  |  | O=C1Nc2ccccc2C(c2ccccc2)=N[C@@H]1Nc1nnc(-c2nc(C3CC3)sc2N2CCOCC2)o1 [Example 338] | > 6.40 | > 6.40 |
|  |  | O=C1Nc2ccccc2C(c2ccccc2)=N[C@@H]1Nc1nnc(-c2nc(C(F)(F)F)sc2N2CCOCC2)o1 [Example 339] | > 6.40 | > 6.40 |
|  |  | O=C1Nc2ccccc2C(c2ccccc2)=N[C@@H]1Nc1nnc(-c2nc(-c3ccccc3)sc2N2CCOCC2)o1 [Example 340] | > 6.40 | > 6.40 |
|  |  | O=C1Nc2ccccc2C(c2ccccc2)=N[C@@H]1Nc1nnc(-c2nc(-c3ccccn3)sc2N2CCOCC2)o1 [Example 341] | > 6.40 | > 6.40 |
|  |  | O=C1Nc2ccccc2C(c2ccccc2)=N[C@@H]1Nc1nnc(-c2csc(N3CCOCC3)n2)o1 [Example 351] | 6.10 to 6.40 | 6.10 to 6.40 |
|  |  | O=C1Nc2c(F)cccc2C(c2ccccc2)=N[C@@H]1Nc1nnc(-c2ccccc2N2CCOCC2)o1 [Example 355a] | > 6.40 | > 6.40 |
|  |  | O=C1Nc2ccccc2C(c2ccccc2)=NC1Nc1nnc(-c2ccc(-n3cccn3)cc2)[nH]1 (stereo not shown) [Example 364] | 6.10 to 6.40 | > 6.40 |
|  |  | N#Cc1ccc(-c2ccc(NC3N=C(c4ccccc4)c4ccccc4NC3=O)nn2)cc1 (stereo not shown) [Example 377] | > 6.40 | > 6.40 |
